Source: patent US9187784B2, “EphA4 is a disease modifier in motor neuron disease” (VIB VZW, priority 2011, dated 2015)
Marks after values point to notes of the source that are not given here.

Tests used:
[1] = tested on: mutant SOD1-overexpressing fish; assay: mutant SOD1-induced motor axonopathy in zebrafish embryos (percentage affected embryos, motor axon length); type: in vivo
Text: FIG. 1: EphA4 knockdown rescues mutant SOD1-induced motor axonopathy. […] Abnormal branching is indicated with arrowhead. Y-axes show motor axon length of zebrafish embryos expressing wild-type SOD1 (black bar, Panels D-G) or mutant SOD1 (white bar, Panels D-G). Knockdown of RTK2 in SOD1A4V- (Panel D), SOD1G93A- (Panel E) and SOD1G37R- (Panel F) expressing fish was established by co-injection of increasing amounts of atg-RTK2 morpholino (shaded bars). RTK1 expression was inhibited in SOD1A4V-expressing fish by co-injection of atg-RTK1 morpholino (shaded bars, Panel G). Ctr-RTK2 and ctr-RTK1 were used as control. ANOVA and Bonferroni's multiple comparison tests were used for statistical analysis. Comparing axonal length in SOD1A4V fish injected with ctr-RTK2 (n=39) vs. different doses atg-RTK2: 3 ng (n=43, p=0.0059), 4.5 ng (n=37, p=0.0016, Panel D), SOD1G93A: ctr-RTK2 (n=60) vs. atg-RTK2: 1.5 ng (n=55, p=0.015), 3 ng (n=51, p=2.82×10-9), 4.5 ng (n=46, p=2.22×10-15, Panel E), SOD1G37R: ctr-RTK2 (n=37) vs. atg-RTK2: 3 ng (n=25, p=0.027), 4.5 ng (n=36, p=0.0018, Panel F) and SOD1A4V: ctr-RTK1 (n=49) vs. atg-RTK1: 1.5 ng (n=51, p=2.51×10-7), 3 ng (n=64, p=7.99×10-10), 4.5 ng (n=54, p<1×10-20, Panel G). Western blot of SOD1WT or SOD1A4V (1.76 ng) expressing zebrafish embryos (30 hpf), co-injected with either ctr-RTK1 or atg-RTK1 (4.5 ng). Sixty embryos were used per group with actin as the loading control (H). Immunostaining of rtk1 (green) in rhombomeres 3 and 5 and of ephrin-b2 (magenta) in rhombomere 4 in zebrafish embryos injected with either ctr-RTK1 or atg-RTK1 (4.5 ng). RTK1-depleted embryos show disorganized rhombomere boundaries (arrowhead, I, Scale bar 50 μm). Error bars are s.e.m.
FIG. 2: RTK2 knockdown protects motor axons against SOD1^A4V-induced injury. Effect of RTK2 knockdown, established by injection of splice-rtk2 morpholino, on the motor axon length of SOD1^A4V-expressing zebrafish embryos (30 hpf). SOD1^WT-expressing fish and a non-functional five-base pair-mismatch control morpholino (ctr-RTK2) were used as control (Panel A). ANOVA and Bonferroni's multiple comparison tests were used for statistical analysis: SOD1^A4V/ctr-RTK2 (n=56) vs. SOD1^A4V/spl-RTK2 (n=60, 1.79×10^−4). Spl-RTK2 was designed against the exon 2 splice site of the zebrafish RTK2 pre-mRNA and alternatively skipped out exon 2. RT-PCR on non-transgenic fish (lane 1), ctr-RTK2-injected fish (lane 2) and spl-RTK2-injected fish (lane 3) at 30 hpf. Functional RTK2 mRNA, containing exon 2, is indicated by the 818-bp product (upper band) while non-functional RTK2 mRNA, lacking exon 2 is indicated by the 156-bp product (lower band), 60 embryos each group (Panel B). Error bars are s.e.m.
FIG. 12: Pharmacological inhibition of EphA4 receptor signaling protects against mutant SOD1 pathology in vivo. Effect of treatment with Compound 1 (C1, 500 μM) on the motor axon length of zebrafish embryos (30 hpf). DMSO (1/250 dilution) was used as control (Panel A). ANOVA and Bonferroni's multiple comparison tests were used for statistical analysis: SOD1^A4V/C1 (n=68) vs. SOD1^A4V/DMSO (n=76, p=3.54×10^−5). Effect of KYL-peptide (3 mM) treatment of 60-day-old SOD1^G93A rats on disease onset (Panel B) and survival (Panel C). Artificial CSF (ACSF) was used as control. Average disease onset: 133 days (treated, n=21) versus 125 days (control, n=17, T-test p=0.044). Average survival: 148 days (treated, n=21) versus 139 days (controls, n=17, T-test p=0.041). Error bars are s.e.m.
Effect of RTK2 knockdown (established by injection of atg-RTK2 morpholino) on the percentage of affected wild-type SOD1 or mutant SOD1 (A4V, G93A, G37R) zebrafish embryos (30 hpf). Ctr-RTK2 morpholino was used as control. An embryo was considered as affected when it had more than 10% abnormally branched motor axons. Significance of mtSOD1/ctr-RTK2 (4.5 ng) vs. mtSOD1/atg-RTK2 (4.5 ng) was determined by Mann-Whitney test, * p=0.0075, ° p=0.039 and # p=0.0052. […]

zebrafish embryos = assay: Toxicity analysis of Compound 1 in zebrafish embryos (total body shape); type: in vivo; conditions: for death: read at 30 hpf; for malformed / normal: zebrafish, in vivo, 24 h
Procedure: Different concentrations of C1 were dissolved in the water of 6 hpf-old zebrafish embryos. At 30 hpf, toxicity (%) of C1 was investigated by analyzing total body shape of the embryos.
A morpholino database of translation-blocking morpholinos (atg-mo) was used to perform a morpholino-based knockdown screening in a zebrafish model for ALS.^13 The standard control morpholino (5′-[…]-′3) (SEQ ID NO:4), provided by Gene tools, was used as control. Three nanograms of morpholino were co-injected with […] of SOD1 mRNA and the effect of gene knockdown on the mutant SOD1-induced axonopathy analyzed. Each morpholino was tested in two separate experiments. Only morphologically normal embryos were included for further analysis. Overexpression of SOD1 or TDP-43, applied to validate the protective morpholino, was established by injection of 1.76 ng SOD1 mRNA or 1.43 ng TDP-43 mRNA, respectively. Antisense morpholinos to knockdown zebrafish RTK1, RTK2, Smn and their five base pair-mismatch control morpholinos were developed by Gene tools: atg-RTK1 (5′-[…]-′3) (SEQ ID NO:5), atg-RTK2 (5′-[…]-[…]-′3) (SEQ ID NO:6), splice-RTK2 (5′-[…]-[…]-′3) (SEQ ID NO:7) and atg-smn (5′-[…]-3′) (SEQ ID NO:8). Compound 1 (2,5-dimethylpyrrolyl benzoic acid, Matrix Scientific) dissolved in DMSO was added to the water of 6-hpf-old zebrafish embryos.

Row | Molecule | % affected fish ([1]; Table 4, SOD1A4V fish, morpholino 1.5 ng) | % affected fish ([1]; Table 4, SOD1A4V fish, morpholino 3 ng) | % affected fish ([1]; Table 4, SOD1A4V fish, morpholino 4.5 ng) | % affected fish ([1]; Table 4, SOD1WT fish, morpholino 4.5 ng) | death (zebrafish embryos; C1 250 μM in water from 6 hpf) | death (zebrafish embryos; C1 500 μM in water from 6 hpf) | death (zebrafish embryos; C1 750 μM in water from 6 hpf) | death (zebrafish embryos; C1 1000 μM in water from 6 hpf) | malformed (zebrafish embryos; 250 μM) | normal (zebrafish embryos; 250 μM) | malformed (zebrafish embryos; 500 μM) | normal (zebrafish embryos; 500 μM) | malformed (zebrafish embryos; 750 μM) | normal (zebrafish embryos; 750 μM) | malformed (zebrafish embryos; 1000 μM) | normal (zebrafish embryos; 1000 μM) | % affected fish ([1]; Table 4, SOD1A4V fish, C1 500 μM in the water) | % affected fish ([1]; Table 4, SOD1WT fish, C1 500 μM in the water)
1 | 5′-CTGTGAACACAAGCGCAGCCATTGG-′3 (all phosphorodiamidate morpholino (PMO)) [atg-RTK1] | 38 (24) % | 22 (33) % | 8* (26) % | 14 (14) % | – | – | – | – | – | – | – | – | – | – | – | – | – | –
2 | Cc1ccc(C)n1-c1ccc(C(=O)O)c(O)c1 [Compound C1] | – | – | – | – | 6.12% | 2.80% | 11.2% | 20% | 5.10% | 88.77% | 3.74% | 93.45% | 12.93% | 75.86% | 80% | 0% | 11° (26) % | 15 (32) %
